Assay results taken from paper PMC5700055, “Structural basis of cholesterol binding by a novel clade of dendritic cell modulators from ticks” (Scientific Reports, 2017).

Target: T1, Japanin (Rhipicephalus appendiculatus, UniProt M1MR49)
T1 construct: polyhistidine-tagged recombinant secretory lipocalin, Sf9 baculovirus; 18 kDa; N-glycosylated at Asn35 and Asn131; homodimer; disulphides Cys28-Cys150, Cys114-Cys138; modelled residues 1-154
T1 sequence (M1MR49 25-176): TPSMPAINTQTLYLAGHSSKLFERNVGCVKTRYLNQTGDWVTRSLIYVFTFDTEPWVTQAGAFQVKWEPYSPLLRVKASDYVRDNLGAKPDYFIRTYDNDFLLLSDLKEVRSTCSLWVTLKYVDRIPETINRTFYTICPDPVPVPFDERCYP
Assay: X-ray crystallography ([…] and […] Å)
Type: binding
Conditions: co-purified ligand, no cholesterol added; one per monomer in closed lipocalin barrel pocket; crystals pH 6.9-7.2 (4boe) and pH 4.5 (4bqu), 21 °C

CC(C)CCC[C@@H](C)[C@H]1CC[C@H]2[C@@H]3CC=C4C[C@@H](O)CC[C@]4(C)[C@H]3CC[C@]12C [CLR, cholesterol]
X-ray crystallography (2.2 and 2.4 Å): each molecule in the crystals binds one molecule of cholesterol
